Experimental findings from patent US5486595A, “Tumor necrosis factor inhibitors” (Centecor, Inc., priority 1994, dated 1996) are described below.

Where a SMILES comes first, the peptide text is derived from it.

T1 sequence (P01375 77-233 limits assumed): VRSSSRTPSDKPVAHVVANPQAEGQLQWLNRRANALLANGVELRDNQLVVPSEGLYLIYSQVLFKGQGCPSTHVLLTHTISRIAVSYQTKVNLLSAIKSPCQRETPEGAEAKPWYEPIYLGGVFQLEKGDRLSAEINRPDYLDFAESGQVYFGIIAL

The first experiment concerns the target T1, human TNFα (Homo sapiens, UniProt P01375).
T1 construct: purchased Biosource, Camarillo, Calif
Description: p55 Receptor/IgG Fusion Protein Binding Assay (inhibition of TNFα capture by p55-Ig coated plate). Particulars: peptide 1 mM; TNFα 25 ng/ml.
Turning to “SEQ ID NO:40: peptide of the invention that inhibits TNFα; sequence not printed (WVPEALSAGSRASSD)”, the “inhibition of binding of TNFα to p55TNFr-IgG chimeric construct” value is recorded as 72%.
The same measure, in the same setting: the same measure for “SEQ ID NO:42: peptide of the invention that inhibits TNFα; sequence not printed (SSDQVETQAATREQN)”: 40%; for “SEQ ID NO:47: peptide of the invention that inhibits TNFα; sequence not printed (TSSTDIARPHQIANV)”: 29%; for “SEQ ID NO:43: peptide of the invention that inhibits TNFα; sequence not printed (PGWYAALSKQEGARL)”: 37%.
Consider “SEQ ID NO:53: peptide of the invention that inhibits TNFα; sequence not printed (DAVATSTSPTRSMAP)”, for which the “inhibition of binding of TNFα to p55TNFr-IgG chimeric construct” value is on record as 63%.

The experiment is the same for the next values; noted with them: peptide 1 mM; TNFα 25 ng/ml; read-out: inhibition of binding of TNFα to p55TNFr-IgG chimeric construct.
Turning to `CC[C@H](C)[C@H](NC(=O)[C@H](CCC(N)=O)NC(=O)[C@@H]1CCCN1)C(=O)N[C@@H](CCC(=O)O)C(=O)N[C@@H](CC(N)=O)C(=O)N[C@H](C(=O)N[C@@H](CCCCN)C(=O)NCC(=O)N[C@H](C(=O)N[C@@H](CCC(=O)O)C(=O)N[C@@H](CC(N)=O)C(=O)N[C@@H](CO)C(=O)NCC(=O)N[C@H](C(=O)N[C@H](C(N)=O)[C@@H](C)O)[C@@H](C)O)[C@@H](C)O)C(C)C` [SEQ ID NO:23, Prolyl-glutaminyl-isoleucyl-glutamyl-asparaginyl-valyl-lysyl-glycyl-threonyl-glutamyl-asparaginyl-seryl-glycyl-threonyl-threonine Amide] (H-PQIENVKGTENSGTT-NH2), the inhibition at 1000 µM stood at 52%.
Same read-out and setting: to `CC[C@H](C)[C@H](NC(=O)[C@H](CCC(=O)O)NC(=O)[C@@H](NC(=O)[C@H](CCC(N)=O)NC(=O)CNC(=O)[C@H](CCSC)NC(=O)[C@H](CCC(=O)O)NC(=O)[C@@H](N)CCCCN)C(C)C)C(=O)N[C@@H](CO)C(=O)N[C@@H](CO)C(=O)N[C@@H](C)C(=O)N[C@H](C(=O)N[C@H](C(=O)N[C@@H](CC(=O)O)C(=O)N[C@@H](CCCNC(=N)N)C(N)=O)C(C)C)[C@@H](C)O` [SEQ ID NO:7] belongs 42%; to `CC(C)C[C@H](NC(=O)[C@H](C)NC(=O)[C@H](CC(C)C)NC(=O)[C@H](CO)NC(=O)[C@H](C)NC(=O)[C@H](CC(N)=O)NC(=O)[C@H](Cc1ccccc1)NC(=O)[C@H](C)N)C(=O)N[C@@H](CC(N)=O)C(=O)NCC(=O)N[C@H](C(=O)N[C@H](C(=O)N[C@@H](Cc1c[nH]cn1)C(=O)N[C@@H](CC(C)C)C(=O)N[C@@H](CO)C(N)=O)C(C)C)[C@@H](C)O` [SEQ ID NO:14] (H-AFNASLALNGTVHLS-NH2), 29%; to `CC(C)C[C@H](NC(=O)[C@H](Cc1c[nH]cn1)NC(=O)[C@H](CC(N)=O)NC(=O)[C@H](CCC(=O)O)NC(=O)[C@H](CO)NC(=O)[C@H](C)NC(=O)[C@@H](NC(=O)[C@H](Cc1ccccc1)NC(=O)[C@H](CO)NC(=O)CNC(=O)[C@H](CO)NC(=O)[C@H](CCC(=O)O)NC(=O)[C@H](C)NC(=O)[C@@H](N)CCC(=O)O)[C@@H](C)O)C(=O)N[C@@H](CCCNC(=N)N)C(N)=O` [SEQ ID NO:6, Glutamyl-alanyl-glutamyl-seryl-glycyl-seryl-phenylalanyl-threonyl-alanyl-seryl-glutamyl-asparaginyl-histidyl-leucyl-arginine Amide] (H-EAESGSFTASENHLR-NH2), 53%.
As for `CC[C@H](C)[C@H](NC(=O)[C@H](CCC(=O)O)NC(=O)[C@@H](NC(=O)[C@H](CCC(N)=O)NC(=O)CN)C(C)C)C(=O)N[C@@H](CO)C(=O)N[C@@H](CO)C(=O)N[C@@H](C)C(=O)N[C@H](C(=O)N[C@H](C(=O)N[C@@H](CC(=O)O)C(=O)N[C@@H](CCCNC(=N)N)C(=O)N[C@@H](CC(=O)O)C(=O)N[C@H](C(=O)N[C@H](C(N)=O)C(C)C)[C@@H](C)O)C(C)C)[C@@H](C)O` [SEQ ID NO:8] (H-GQVEISSATVDRDTV-NH2), the inhibition at 1000 µM worked out at 56%.
Same read-out and setting: the same measure for `CC(C)C[C@H](NC(=O)[C@@H](N)Cc1c[nH]cn1)C(=O)N1CCC[C@H]1C(=O)N[C@@H](CCC(N)=O)C(=O)N1CCC[C@H]1C(=O)N[C@H](C(=O)N[C@@H](CO)C(=O)N[C@H](C(=O)N[C@@H](CCCNC(=N)N)C(=O)N[C@@H](CO)C(=O)N[C@@H](CCC(N)=O)C(=O)N[C@@H](Cc1c[nH]cn1)C(=O)N[C@H](C(=O)N[C@@H](CCC(N)=O)C(=O)N1CCC[C@H]1C(N)=O)[C@@H](C)O)[C@@H](C)O)C(C)C` [SEQ ID NO:56] (H-HLPQPVSTRSQHTQP-NH2): 67%; for `CC(C)C[C@H](NC(=O)[C@H](Cc1c[nH]cn1)NC(=O)[C@@H](NC(=O)[C@H](C)NC(=O)CN)C(C)C)C(=O)N1CCC[C@H]1C(=O)N[C@@H](CCC(N)=O)C(=O)N1CCC[C@H]1C(=O)N[C@H](C(=O)N[C@@H](CO)C(=O)N[C@H](C(=O)N[C@@H](CCCNC(=N)N)C(=O)N[C@@H](CO)C(=O)N[C@@H](CCC(N)=O)C(=O)N[C@@H](Cc1c[nH]cn1)C(N)=O)[C@@H](C)O)C(C)C` [SEQ ID NO:55] (H-GAVHLPQPVSTRSQH-NH2): 60%; for `C[C@@H](O)[C@H](NC(=O)[C@H](CO)NC(=O)[C@@H]1CCCN1C(=O)[C@H](CCC(=O)O)NC(=O)[C@@H]1CCCN1C(=O)[C@@H](NC(=O)[C@@H]1CCCN1C(=O)[C@H](CCC(N)=O)NC(=O)[C@@H](NC(=O)[C@H](Cc1c[nH]cn1)NC(=O)[C@H](CCC(N)=O)NC(=O)[C@H](CO)NC(=O)[C@H](CCCNC(=N)N)NC(=O)[C@@H](NC(=O)[C@@H](N)CO)[C@@H](C)O)[C@@H](C)O)[C@@H](C)O)C(N)=O` [SEQ ID NO:57] (H-STRSQHTQPTPEPST-NH2): 72%.
Still for that read-out and setting: to `CC[C@H](C)[C@H](NC(=O)[C@H](CCC(N)=O)NC(=O)[C@@H]1CCCN1C(=O)[C@H](CC(C)C)NC(=O)[C@H](C)NC(=O)[C@@H](N)CC(C)C)C(=O)N[C@@H](CCC(=O)O)C(=O)N[C@@H](CC(N)=O)C(=O)N[C@H](C(=O)N[C@@H](CCCCN)C(=O)NCC(=O)N[C@H](C(=O)N[C@@H](CCC(=O)O)C(=O)N[C@@H](CC(=O)O)C(=O)N[C@@H](CO)C(N)=O)[C@@H](C)O)C(C)C` [SEQ ID NO:22, Leucyl-alanyl-leucyl-prolyl-glutaminyl-isoleucyl-glutamyl-asparaginyl-valyl-lysyl-glycyl-threonyl-glutamyl-aspartyl-serine Amide] (H-LALPQIENVKGTEDS-NH2) belongs 34%; to `CC(=O)N[C@@H](CC(C)C)C(=O)N[C@@H](Cc1ccccc1)C(=O)N[C@@H](CCC(N)=O)C(=O)N[C@@H](C)C(=O)N[C@@H](Cc1ccccc1)C(=O)N[C@@H](CC(N)=O)C(=O)N[C@@H](C)C(=O)N[C@@H](CO)C(=O)N[C@@H](CC(C)C)C(=O)N[C@@H](C)C(=O)N[C@@H](CC(C)C)C(=O)N[C@@H](CC(N)=O)C(=O)NCC(=O)N[C@H](C(=O)N[C@H](C(N)=O)C(C)C)[C@@H](C)O` [SEQ ID NO:12, Acetyl-leucyl-phenylalanyl-glutaminyl-alanyl-phenylalanyl-asparaginyl-alanyl-seryl-leucyl-alanyl-leucyl-asparaginyl-glycyl-threonyl-valine Amide] (Ac-LFQAFNASLALNGTV-NH2), 40%.
On the same count and under the same terms, to `CC(C)C[C@H](NC(=O)[C@H](CCCCN)NC(=O)[C@@H](NC(=O)[C@H](CS)NC(=O)[C@H](CCC(=O)O)NC(=O)[C@H](CC(C)C)NC(=O)[C@H](CO)NC(=O)[C@H](CCCCN)NC(=O)[C@H](CCCCN)NC(=O)[C@H](CS)NC(=O)[C@H](CC(N)=O)NC(=O)[C@H](CO)NC(=O)[C@H](CS)NC(=O)[C@H](CO)NC(=O)[C@@H](NC(=O)[C@H](CS)NC(=O)[C@H](CCC(=O)O)NC(=O)[C@H](CC(N)=O)NC(=O)[C@H](CCC(=O)O)NC(=O)[C@@H](N)CCCNC(=N)N)C(C)C)[C@@H](C)O)C(=O)O` [SEQ ID NO:20, Arginyl-glutamyl-asparaginyl-glutamyl-cysteinyl-valyl-seryl-cysteinyl-seryl-asparaginyl-cysteinyl-lysyl-lysyl-seryl-leucyl-glutamyl-cysteinyl-threonyl-lysyl-leucine] (H-RENECVSCSNCKKSLECTKL-OH) belongs 26%.
